In patent US10201564B2, “Methods of using inhaled nitric oxide gas for treatment of acute respiratory distress syndrome in children” (Mallinckrodt Hospital Products IP Limited, priority 2014, dated 2019):

Tested on: pediatric subjects with acute hypoxemic respiratory failure (AHRF)
Experiment: Pediatric AHRF study: adverse events, serious adverse events, deaths, discontinuations
Type: in vivo, human
Procedure: This was a prospective, multicenter, randomized, double-blind, placebo-controlled, parallel-group study of the safety and efficacy of inhaled nitric oxide in pediatric subjects with acute hypoxemic respiratory failure (AHRF). The subjects were randomized to receive either 5 ppm inhaled nitric oxide or placebo.
Nitric Oxide for inhalation at 5 ppm was administered continuously into the inspiratory limb of the ventilator circuit in mechanically ventilated subjects using a blinded version of the INOvent® delivery system.
Subjects received 100% treatment gas (nitric oxide 5 ppm or placebo [nitrogen gas]) until Day 28 or extubation, whichever occurred first.
This was a prospective, multicenter, randomized, double-blind, placebo-controlled, Phase III study to assess the effects of nitric oxide for inhalation in the treatment of acute hypoxic respiratory failure (AHRF) in pediatric subjects. The study population consisted of male and female pediatric subjects, aged 44 weeks postconceptional age to 16 years age, who were admitted to the pediatric intensive care unit (PICU) and who required intubation because of AHRF. The inclusion/exclusion criteria are described in the Patients section below.
Standardized ventilatory management and weaning procedures were used. Ventilatory management was used based on an “open lung approach” using positive end-expiratory pressure (PEEP) to increase lung volume and limiting tidal volumes to reduce plateau pressures. Subjects received nitric oxide for inhalation at 5 ppm or placebo (100% Grade 5 nitrogen gas) into the inspiratory limb of the ventilator circuit using a blinded version of the INOvent® delivery system. The subjects were treated until Day 28 or extubation, whichever occurred first. Subjects were assessed daily using a spontaneous breathing trial, according to the institution's standard of care. Arterial blood gases (ABG), ventilator settings, methemoglobin, oxygenation index, systolic blood pressure, diastolic blood pressure, Pediatric Risk of Mortality (PRISM) III score, and subject positioning (prone or supine) were performed/recorded at specified times during the study. Selected centers also performed plasma cytokine assays, bronchoalveolar lavage fluid (BALF) assays, and a 6-month follow-up assessment.

[1] = 5 ppm, relationship to study treatment Suspected

For `[N]=O` [Nitric Oxide, nitric oxide], the “Serious adverse event: Hypotension, subjects n (%)” value [1] was 0 (0.0), the “Serious adverse event: Hypoxia, subjects n (%)” value [1] was 0 (0.0) and the “Serious adverse event: Intracranial pressure increased, subjects n (%)” value [1] was 0 (0.0). For the same compound, the “Serious adverse event: Multi-organ failure, subjects n (%)” value [1] was 0 (0.0), the “Serious adverse event: Pancreatitis, subjects n (%)” value [1] was 0 (0.0) and the “Serious adverse event: Pneumonia, aspergillus, subjects n (%)” value [1] was 0 (0.0). For the same compound, the “Serious adverse event: Pulmonary hemorrhage, subjects n (%)” value [1] was 0 (0.0), the “Serious adverse event: Renal failure, acute, subjects n (%)” value [1] was 0 (0.0) and the “Serious adverse event: Renal failure, subjects n (%)” value [1] was 0 (0.0). The “Serious adverse event: Renal impairment, subjects n (%)” value [1] was 0 (0.0), the “Serious adverse event: Respiratory failure, subjects n (%)” value [1] was 0 (0.0) and the “Serious adverse event: Sepsis, subjects n (%)” value [1] was 0 (0.0). For the same compound, the “Serious adverse event: Subdural hematoma, subjects n (%)” value [1] was 0 (0.0), the “Serious adverse event: Unevaluable event, subjects n (%)” value [1] was 0 (0.0) and the Abdominal distension (5 ppm, subjects with AE) was 0 (0.0) n (%). For the same compound, the Acidosis (5 ppm, subjects with AE) was 1 (3.8%) n (%), the Agitation (5 ppm, subjects with AE) was 2 (7.7%) n (%) and the Anemia (5 ppm, subjects with AE) was 1 (3.8%) n (%). The Apnea (5 ppm, subjects with AE) was 1 (3.8%) n (%), the Arrhythmia (5 ppm, subjects with AE) was 1 (3.8%) n (%) and the Ascites (5 ppm, subjects with AE) was 1 (3.8%) n (%). For the same compound, the Bacteremia (5 ppm, subjects with AE) was 2 (7.7%) n (%), the “Bacteria, blood” value (5 ppm, subjects with AE) was 1 (3.8%) n (%) and the “Bacteria, sputum” value (5 ppm, subjects with AE) was 0 (0.0) n (%). The Bladder distension (5 ppm, subjects with AE) was 0 (0.0) n (%), the Brain edema (5 ppm, subjects with AE) was 0 (0.0) n (%) and the Bronchoalveolar lavage (5 ppm, subjects with AE) was 1 (3.8%) n (%). The C-reactive protein increased (5 ppm, subjects with AE) was 0 (0.0) n (%), the Cardiac arrest (5 ppm, subjects with AE) was 0 (0.0) n (%) and the Cerebral artery occlusion (5 ppm, subjects with AE) was 0 (0.0) n (%). For the same compound, the Chest tube insertion (5 ppm, subjects with AE) was 1 (3.8%) n (%), the Deep vein thrombosis (5 ppm, subjects with AE) was 2 (7.7%) n (%) and the Device failure (5 ppm, subjects with AE) was 0 (0.0) n (%). The Diabetic ketoacidosis (5 ppm, subjects with AE) was 0 (0.0) n (%), the Diarrhea (5 ppm, subjects with AE) was 0 (0.0) n (%) and the Disseminated intravascular coagulation (5 ppm, subjects with AE) was 0 (0.0) n (%). The Empyema (5 ppm, subjects with AE) was 0 (0.0) n (%), the Feeding disorder (5 ppm, subjects with AE) was 0 (0.0) n (%) and the Fungemia (5 ppm, subjects with AE) was 1 (3.8%) n (%). The Fungus culture positive (5 ppm, subjects with AE) was 0 (0.0) n (%), the “Fungus urine test positive” value (5 ppm, subjects with AE) was 0 (0.0) n (%) and the Gangrene (5 ppm, subjects with AE) was 1 (3.8%) n (%). For the same compound, the Gastrointestinal hemorrhage (5 ppm, subjects with AE) was 0 (0.0) n (%), the Generalized edema (5 ppm, subjects with AE) was 0 (0.0) n (%) and the Hematuria (5 ppm, subjects with AE) was 0 (0.0) n (%). For the same compound, the Hemoglobinemia (5 ppm, subjects with AE) was 1 (3.8%) n (%), the Hemolytic anemia (5 ppm, subjects with AE) was 0 (0.0) n (%) and the Hemopneumothorax (5 ppm, subjects with AE) was 0 (0.0) n (%). The Hemorrhage (5 ppm, subjects with AE) was 0 (0.0) n (%), the Hemothorax (5 ppm, subjects with AE) was 0 (0.0) n (%) and the Hepatic failure (5 ppm, subjects with AE) was 0 (0.0) n (%). The Hepatosplenomegaly (5 ppm, subjects with AE) was 1 (3.8%) n (%), the Hyperammonemia (5 ppm, subjects with AE) was 0 (0.0) n (%) and the Hypercalcemia (5 ppm, subjects with AE) was 1 (3.8%) n (%). The Hypercapnia (5 ppm, subjects with AE) was 0 (0.0) n (%), the Hyperchloremia (5 ppm, subjects with AE) was 1 (3.8%) n (%) and the Hyperglycemia (5 ppm, subjects with AE) was 1 (3.8%) n (%). For the same compound, the Hyperkalemia (5 ppm, subjects with AE) was 1 (3.8%) n (%), the Hyperlipidemia (5 ppm, subjects with AE) was 0 (0.0) n (%) and the Hypernatremia (5 ppm, subjects with AE) was 2 (7.7%) n (%). The Hypertension (5 ppm, subjects with AE) was 0 (0.0) n (%), the Hypocalcemia (5 ppm, subjects with AE) was 1 (3.8%) n (%) and the Hypochloremia (5 ppm, subjects with AE) was 0 (0.0) n (%). For the same compound, the Hypothermia (5 ppm, subjects with AE) was 0 (0.0) n (%), the Hypoxia (5 ppm, subjects with AE) was 0 (0.0) n (%) and the Intracranial pressure increased (5 ppm, subjects with AE) was 0 (0.0) n (%). For the same compound, the Labile blood pressure (5 ppm, subjects with AE) was 0 (0.0) n (%), the Leukocytosis (5 ppm, subjects with AE) was 1 (3.8%) n (%) and the “Lung infection, pseudomonal” value (5 ppm, subjects with AE) was 0 (0.0) n (%). For the same compound, the Medical device removal (5 ppm, subjects with AE) was 0 (0.0) n (%), the Metabolic acidosis (5 ppm, subjects with AE) was 0 (0.0) n (%) and the Metabolic alkalosis (5 ppm, subjects with AE) was 1 (3.8%) n (%). The Multi-organ failure (5 ppm, subjects with AE) was 0 (0.0) n (%), the Ocular icterus (5 ppm, subjects with AE) was 0 (0.0) n (%) and the Oliguria (5 ppm, subjects with AE) was 0 (0.0) n (%). The Oxygen saturation decreased (5 ppm, subjects with AE) was 2 (7.7%) n (%), the Pancreatitis (5 ppm, subjects with AE) was 0 (0.0) n (%) and the Pleural effusion (5 ppm, subjects with AE) was 0 (0.0) n (%). For the same compound, the Pneumomediastinum (5 ppm, subjects with AE) was 0 (0.0) n (%), the Pneumonia (5 ppm, subjects with AE) was 1 (3.8%) n (%) and the “Pneumonia, aspergillus” value (5 ppm, subjects with AE) was 0 (0.0) n (%). The “Pneumonia, staphylococcal” value (5 ppm, subjects with AE) was 1 (3.8%) n (%), the Pruritus (5 ppm, subjects with AE) was 0 (0.0) n (%) and the Pseudomonal sepsis (5 ppm, subjects with AE) was 1 (3.8%) n (%). For the same compound, the Pulmonary hemorrhage (5 ppm, subjects with AE) was 0 (0.0) n (%), the Pulmonary hypertension (5 ppm, subjects with AE) was 0 (0.0) n (%) and the Pyrexia (5 ppm, subjects with AE) was 0 (0.0) n (%). For the same compound, the Renal failure (5 ppm, subjects with AE) was 1 (3.8%) n (%), the “Renal failure, acute” value (5 ppm, subjects with AE) was 0 (0.0) n (%) and the Renal impairment (5 ppm, subjects with AE) was 0 (0.0) n (%). The Respiratory acidosis (5 ppm, subjects with AE) was 0 (0.0) n (%), the Sepsis (5 ppm, subjects with AE) was 0 (0.0) n (%) and the Skin injury (5 ppm, subjects with AE) was 0 (0.0) n (%). The Subdural hematoma (5 ppm, subjects with AE) was 0 (0.0) n (%), the Thrombocythemia (5 ppm, subjects with AE) was 1 (3.8%) n (%) and the Thrombocytopenia (5 ppm, subjects with AE) was 0 (0.0) n (%). The Tracheitis (5 ppm, subjects with AE) was 2 (7.7%) n (%), the Unevaluable event (5 ppm, subjects with AE) was 2 (7.7%) n (%) and the Urinary tract infection (5 ppm, subjects with AE) was 1 (3.8%) n (%). The “Urinary tract infection, fungal” value (5 ppm, subjects with AE) was 1 (3.8%) n (%), the Urine output decreased (5 ppm, subjects with AE) was 1 (3.8%) n (%) and the “White blood cell count increased” value (5 ppm, subjects with AE) was 0 (0.0) n (%). The “AE in which death was the outcome, subject 2001A” value (died after the treatment period) was “No AE listed in which death was the outcome”, the “AE in which death was the outcome, subject 2007” value (donor two) was “No AE listed in which death was the outcome” and the “relationship of deaths, serious AEs, severe AEs and AEs resulting in discontinuation to study treatment” value (in words) was “No death, serious AE, severe AE, or AE resulting in treatment discontinuation was suspected to be related to study treatment”. The “SAE (identification of subjects with serious adverse events)” value (subject 3003 (person one), nitric oxide group) was “Bradycardia, hypotension” and the “Action/Reported Outcome of SAE” value (subject 3003 (person one), nitric oxide group, DC = discontinued treatment) was “DC/death”.
